Measurements from publication PMC5760633, “Determining direct binders of the Androgen Receptor using a high-throughput Cellular Thermal Shift Assay” (Scientific Reports, 2018).
Residue numbers refer to the chain shown, from its start. pEC50, pIC50: −log10 of the molar value. Where two headings read alike, the source gives them in different places.

Key:
[1] = system: AR-driven transcription (ARE-Luciferase); experiment: AR-driven transcription ARE Luciferase reporter assay in CWR22Pc-R1-AD1 cells; format: cell-based, human;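 also: cells stably carrying an ARE-driven firefly luciferase reporter, with luminescence as read-out, tested in phenol red free RPMI containing 10% charcoal stripped FBS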
Experimental: 15 µL 2x Steady-Glo® reagent (Promega) was added per well and incubated 15 min in the dark before reading luminescence using an EnVision platereader. Experiments were performed in phenol red free RPMI media supplemented with 10% charcoal stripped FBS.

Androgen Receptor (AR) [2] = molecular target: T1, Androgen Receptor (AR) (Homo sapiens, UniProt P10275, H875Y); experiment: CETSA HT ITDRF at 46 °C, antagonist mode in the presence of 1 nM DHT, CWR22Pc-R1-AD1 cells; format: binding; conditions: for pIC50: AR target engagement (CETSA HT), IC50, CWR22Pc-R1-AD1 cells; for pIC50 / AR target engagement (CETSA HT), 2 h, IC50: 46 °C heat shock; for AR target engagement (CETSA HT), 2 h, IC50: CWR22Pc-R1-AD1 cells; for IC50: one technical repeat, read-out: CETSA HT response pIC50 (converted)
T1 construct: exclusively expresses a structurally full-length AR containing a H874Y mutation; endogenous in cells; host or cells: CWR22Pc-R1-AD1
T1 sequence (P10275 1-920 H875Y): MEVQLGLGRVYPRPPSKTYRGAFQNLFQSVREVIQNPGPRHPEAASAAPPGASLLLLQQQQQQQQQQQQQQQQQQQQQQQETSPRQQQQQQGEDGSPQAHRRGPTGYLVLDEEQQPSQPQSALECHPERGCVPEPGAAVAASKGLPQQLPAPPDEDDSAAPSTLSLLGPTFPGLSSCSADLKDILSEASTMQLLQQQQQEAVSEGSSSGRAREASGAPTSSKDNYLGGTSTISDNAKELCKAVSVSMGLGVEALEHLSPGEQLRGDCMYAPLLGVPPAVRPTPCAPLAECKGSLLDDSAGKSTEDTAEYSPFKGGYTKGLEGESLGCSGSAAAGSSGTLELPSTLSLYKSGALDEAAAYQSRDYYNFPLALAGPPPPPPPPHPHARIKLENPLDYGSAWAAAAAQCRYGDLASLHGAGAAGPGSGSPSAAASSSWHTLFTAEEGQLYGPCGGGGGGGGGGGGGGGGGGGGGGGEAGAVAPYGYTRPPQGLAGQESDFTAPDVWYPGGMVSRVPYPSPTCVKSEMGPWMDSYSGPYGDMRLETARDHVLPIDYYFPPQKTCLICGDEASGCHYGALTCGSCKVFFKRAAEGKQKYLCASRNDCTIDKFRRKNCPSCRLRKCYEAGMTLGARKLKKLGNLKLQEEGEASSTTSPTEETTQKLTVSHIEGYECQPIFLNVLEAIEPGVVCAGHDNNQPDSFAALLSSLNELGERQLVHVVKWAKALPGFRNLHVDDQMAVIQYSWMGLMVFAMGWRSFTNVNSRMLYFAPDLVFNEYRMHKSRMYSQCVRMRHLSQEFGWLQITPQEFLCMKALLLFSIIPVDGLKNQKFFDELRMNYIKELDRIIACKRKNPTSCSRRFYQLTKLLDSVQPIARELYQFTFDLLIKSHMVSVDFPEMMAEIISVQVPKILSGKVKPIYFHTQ
Experimental: [sequence] experiments were performed in a plate-based, automation-compatible assay setup, as described in Supplementary Fig. S2e. […] Internal standard controls were included on each plate (Supplementary Fig. S10). […] 10 µL of cells were seeded per well of the PCR plate using a Multidrop Combi dispensor, covered with a plate lid, briefly centrifuged, and incubated under standard tissue culture conditions for 2 h or indicated timepoint. […] Cells were lysed by addition of 10 µL/well 2x SureFire Lysis Buffer using a Multidrop Combi. […] Antibody and AlphaScreen reagent, prepared as above, were added by Multidrop Combi (6 µL/well). Plates were incubated in the dark 16 h and analysed using an EnVision platereader.

Androgen Receptor (AR) [3] = molecular target: T2, Androgen Receptor (AR) (Homo sapiens, UniProt P10275, T878A); experiment: CETSA HT ITDRF at 46 °C, agonist mode, LNCaP cells; format: binding
T2 construct: an alternative AR-positive prostate cancer cell line, LNCaP; endogenous in cells; host or cells: LNCaP
T2 sequence (P10275 1-920 T878A): T1 sequence (P10275 1-920 H875Y) with Y875H, T878A

Androgen Receptor (AR) [4] = molecular target: T1, Androgen Receptor (AR); experiment: CETSA HT ITDRF at 46 °C, agonist mode (no exogenous DHT), CWR22Pc-R1-AD1 cells; format: binding; conditions: for compound incubation time at which AR thermal stabilisation is seen: time-course
total cellular AR = experiment: CETSA HT control without heat shock and without exogenous DHT (total AR); format: cell-based, human
[5] = CWR22Pc-R1-AD1 cells, 1 nM DHT, 24 h; read-out: AR-driven transcription (ARE-Luciferase), 24 h, IC50
[6] = Supplementary Table S1; 24 h, 1 nM DHT
[7] = Supplementary Table S1, 2 h, 46 °C
[8] = Homo sapiens, 24 h; read-out: AR-driven transcription (ARE-Luciferase), 24 h, IC50
[9] = Homo sapiens, 24 h; read-out: ARE-Luciferase response pIC50 (converted)
[10] = 2 h compound incubation, no exogenous DHT, no 46 °C heat shock
[11] = Supplementary Table S1, 1 nM DHT, 2 h, 46 °C

SMILES	Conclusion: activity in ARE-Luciferase assay [1, 6]	pIC50 (Androgen Receptor (AR) [2]; 2 h, 1 nM DHT)	Conclusion: activity in CETSA HT (Androgen Receptor (AR) [2]; [7])	pIC50 [1, 8]	IC50 [1, 9] [nM]	further results
CN(C)[C@H]1CN(C2CCc3cccc(F)c32)C[C@@H]1c1ccc(N2CCN(S(C)(=O)=O)CC2)cc1 (stereo partly drawn) [A-395]	Inactive					pIC50 [1, 5]: < 4.52
COc1ccc(/C=C/C(=O)/C=C(O)/C=C/c2ccc(OC)c(OC)c2)cc1OC [ACS-J9]	Active					pIC50 [1, 5]: < 5.00
C[C@]12CC[C@H](O)CC1=CC[C@@H]1[C@@H]2CC[C@]2(C)C(c3cccnc3)=CC[C@@H]12 [Abiraterone]	Inactive	< 4.52	Inactive	< 4.52		
C[C@]12CCC(=O)C=C1CC[C@@H]1[C@@H]2C(=O)C[C@]2(C)C(=O)CC[C@@H]12 [Andrenosterone]						pEC50 (Androgen Receptor (AR) [3]; read-out: EC50 for AR thermal stabilisation (ITDRF CETSA), LNCaP cells, agonist alone): 7.15; pEC50 (Androgen Receptor (AR) [4]; agonist alone, read-out: EC50 for in-cell AR target engagement (ITDRF CETSA)): 7.30; compound incubation time at which AR thermal stabilisation is seen (Androgen Receptor (AR) [4]): at least 30 minutes; compound incubation time at which AR thermal stabilisation is seen (Androgen Receptor (AR) [4]; listed as andrenosterone): 30 min
CO[C@@H](C(=O)N1Cc2n[nH]c(NC(=O)c3ccc(N4CCN(C)CC4)cc3)c2C1)c1ccccc1 [Danusertib]	Active	< 4.52	Inactive	5.59	2570	
CS(=O)(=O)c1ccc(-c2cnc(NCc3ccco3)n3cnnc23)cc1 [EED-226]	Inactive	< 4.52	Inactive	< 4.52		
CCN(c1cc(-c2ccc(CN3CCOCC3)cc2)cc(C(=O)NCc2c(C)cc(C)[nH]c2=O)c1C)C1CCOCC1 [EPZ-6438]	Inactive	< 4.52	Inactive			
CN1CCN(c2ccc(C(=O)Nc3n[nH]c4ccc(Cc5cc(F)cc(F)c5)cc34)c(NC3CCOCC3)c2)CC1 [Entrectinib]	Active	< 4.52	Inactive	4.95	11200	effect on total AR (no heat shock) (total cellular AR; [10]): do not reduce total AR
CO[C@H]1CNC[C@@H](OCC2CCC(F)(F)CC2)[C@@H]1Nc1ncc(-c2cncc(C)c2)c2cc(C)c(=O)[nH]c12 [GSK8814]	Inactive	< 4.52	Inactive	< 4.52		
O=C(O)c1ccc(CN2CCC(CN[C@@H]3C[C@H]3c3ccccc3)CC2)cc1 [GSK2879522]	Inactive					pIC50 [1, 5]: < 4.52
CC[C@H](C)n1cc(C)c2c(C(=O)NCc3c(C)cc(C)[nH]c3=O)cc(-c3ccc(N4CCNCC4)nc3)cc21 [GSK-126]	Inactive					pIC50 [1, 5]: < 4.52
CC(C)(O)C(=O)Nc1ccc([N+](=O)[O-])c(C(F)(F)F)c1 [Hydroxyflutamide]	Active		Active	6.87	135	AR thermal stabilisation / agonist binding mode by compound alone (Androgen Receptor (AR) [3]; LNCaP cells (AR T877A)): did not show any evidence of binding as an agonist; effect on total AR (no heat shock) (total cellular AR; [10]): do not reduce total AR; temporal analysis of target engagement (competition of DHT) (Androgen Receptor (AR) [2]; 1 nM DHT, incubation 10 minutes – 6 hours): increasing competition of DHT from AR over time; AR thermal stabilisation in time-course of compound incubation (Androgen Receptor (AR) [4]; 10 minutes up to 6 hours incubation): No thermal; AR thermal stabilisation / target engagement by compound alone (Androgen Receptor (AR) [4]; no exogenous agonist): did not thermally stabilise AR
Cc1sc2c(c1C)C(c1ccc(Cl)cc1)=N[C@@H](CC(=O)OC(C)(C)C)c1nnc(C)n1-2 [JQ1]	Partial					pIC50 [1, 5]: 6.52
C[C@](O)(COc1ccc(C#N)cc1)C(=O)Nc1ccc(C#N)c(C(F)(F)F)c1 [MK-2866]						effect on total AR (no heat shock) (total cellular AR): do not reduce total AR; Conclusion: activity in CETSA HT (Androgen Receptor (AR) [2]): Active; temporal analysis of target engagement (competition of DHT) (Androgen Receptor (AR) [2]): increasing competition of DHT from AR over time; pIC50 ([1]; Homo sapiens, 24 h, read-out: AR-driven transcription (ARE-Luciferase), 24 h, IC50): 6.77; IC50 ([1]; Homo sapiens, 24 h, read-out: ARE-Luciferase response pIC50 (converted)): 170 nM
CCNC(=O)c1noc(-c2cc(C(C)C)c(O)cc2O)c1-c1ccc(CN2CCOCC2)cc1 [NVP-AUY-922]	Active		Active	7.05	89.1	effect on total AR (no heat shock) (total cellular AR; [10]): reduces total AR; AR target engagement (CETSA HT), 2 h, IC50 (Androgen Receptor (AR) [2]; 1 nM DHT, 2 h): Reduces total AR; IC50 (Androgen Receptor (AR) [2]; [11]): 955 nM
O=C(Nc1ccc([N+](=O)[O-])cc1Cl)c1cc(Cl)ccc1O [Niclosamide]	Active			6.02	955	
Cc1sc2c(c1C)C(c1ccc(Cl)cc1)=N[C@@H](CC(=O)Nc1ccc(O)cc1)c1nnc(C)n1-2 [OTX-015]	Partial	< 4.52	Inactive	6.67	214	
CC(C)c1cc(C(=O)N2Cc3ccc(CN4CCN(C)CC4)cc3C2)c(O)cc1O [Onalespib]	Active		Active	6.27	537	effect on total AR (no heat shock) (total cellular AR; [10]): reduces total AR; AR target engagement (CETSA HT), 2 h, IC50 (Androgen Receptor (AR) [2]; 1 nM DHT, 2 h): Reduces total AR; IC50 (Androgen Receptor (AR) [2]; [11]): 1050 nM
C=CCNC1=C2C[C@@H](C)C[C@H](OC)[C@H](O)[C@@H](C)/C=C(\C)[C@H](OC(N)=O)[C@@H](OC)/C=C\C=C(/C)C(=O)NC(=CC1=O)C2=O [Tanespimycin]	Active			5.49	3240	
Cc1cc(-c2ncc(CC(=O)Nc3ccc(-c4cnccn4)cn3)cc2C)ccn1 [WNT-974]	Inactive	< 4.52	Inactive	< 4.52		
Oc1nc(-c2ccc(C(F)(F)F)cc2)nc2c1CSCC2 [XAV-939]	Inactive	< 4.52	Inactive	< 4.52		
